Test results: patent publication US11084822B2, “Salts and processes of preparing a PI3K inhibitor” (Incyte Corporation, priority 2015, dated 2021)

What follows are compounds tested against JAK2 (Homo sapiens (Human), UniProt O60674) (assay: JAK2 versus JAK1 (Assay A at 1 mM ATP)). Conditions: ratio JAK2/JAK1, Assay A at 1 mM ATP.
Assay type: biochemical

Chain of JAK2 (O60674 whole entry, species assumed): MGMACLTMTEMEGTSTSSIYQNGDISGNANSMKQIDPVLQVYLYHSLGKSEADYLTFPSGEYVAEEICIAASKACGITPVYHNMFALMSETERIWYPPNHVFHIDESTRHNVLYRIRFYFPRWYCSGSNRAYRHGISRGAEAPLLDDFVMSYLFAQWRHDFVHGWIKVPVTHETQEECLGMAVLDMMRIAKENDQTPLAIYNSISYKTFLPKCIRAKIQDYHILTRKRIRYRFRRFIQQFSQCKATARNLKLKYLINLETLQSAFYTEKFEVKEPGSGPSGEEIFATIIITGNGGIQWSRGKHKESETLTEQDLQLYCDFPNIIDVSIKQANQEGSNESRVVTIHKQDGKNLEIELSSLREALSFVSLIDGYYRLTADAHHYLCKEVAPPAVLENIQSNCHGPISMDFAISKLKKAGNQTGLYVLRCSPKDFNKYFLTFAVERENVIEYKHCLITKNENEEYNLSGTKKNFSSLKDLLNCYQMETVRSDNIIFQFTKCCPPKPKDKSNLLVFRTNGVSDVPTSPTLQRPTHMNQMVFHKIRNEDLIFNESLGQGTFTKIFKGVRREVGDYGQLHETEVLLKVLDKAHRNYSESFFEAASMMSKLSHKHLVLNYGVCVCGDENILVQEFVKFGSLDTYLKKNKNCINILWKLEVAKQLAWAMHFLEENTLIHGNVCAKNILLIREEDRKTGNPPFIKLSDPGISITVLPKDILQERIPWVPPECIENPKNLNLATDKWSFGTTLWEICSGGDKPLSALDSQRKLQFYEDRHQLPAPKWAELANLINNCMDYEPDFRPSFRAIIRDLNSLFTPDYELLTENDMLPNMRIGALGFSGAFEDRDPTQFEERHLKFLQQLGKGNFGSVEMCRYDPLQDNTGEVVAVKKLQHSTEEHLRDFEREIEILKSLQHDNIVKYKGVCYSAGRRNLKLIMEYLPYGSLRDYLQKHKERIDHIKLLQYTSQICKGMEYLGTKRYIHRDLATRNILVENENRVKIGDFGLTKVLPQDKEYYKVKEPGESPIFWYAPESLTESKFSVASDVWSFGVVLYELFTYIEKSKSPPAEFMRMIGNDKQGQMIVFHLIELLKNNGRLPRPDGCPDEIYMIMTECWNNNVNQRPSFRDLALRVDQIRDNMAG

JAK2/JAK1, >10:
C[C@@H](O)CNCc1cc(OC2CCN([C@H]3C[C@](CC#N)(n4cc(-c5ncnc6[nH]ccc56)cn4)C3)CC2)nc(C(F)(F)F)c1 [Compound 24, {trans-3-(4-{[4-({[(2R)-2-hydroxypropyl]amino}methyl)-6-(trifluoromethyl)pyridin-2-yl]oxy}piperidin-1-yl)-1-[4-(7H-pyrrolo[2,3-d]pyrimidin-4-yl)-1H-pyrazol-1-yl]cyclobutyl}acetonitrile]
N#CCC1(n2cc(-c3ncnc4[nH]ccc34)cn2)CN(C2CCN(C(=O)c3ccnc(C(F)(F)F)c3F)CC2)C1 [Compound 7, {1-{1-[3-Fluoro-2-(trifluoromethyl)isonicotinoyl]piperidin-4-yl}-3-[4-(7H-pyrrolo[2,3-d]pyrimidin-4-yl)-1H-pyrazol-1-yl]azetidin-3-yl}acetonitrile]
C[C@H](NC(=O)c1cc(F)c(N2CC(CC#N)(n3cc(-c4ncnc5[nH]ccc45)cn3)C2)cc1F)C(F)(F)F [Compound 16, 4-{3-(cyanomethyl)-3-[4-(7H-pyrrolo[2,3-d]pyrimidin-4-yl)-1H-pyrazol-1-yl]azetidin-1-yl}-2,5-difluoro-N-[(1S)-2,2,2-trifluoro-1-methylethyl]benzamide]
N#CC[C@]1(n2cc(-c3ncnc4[nH]ccc34)cn2)C[C@H](N2CCC(Oc3cc(CN4CCC[C@H]4CO)cc(C(F)(F)F)n3)CC2)C1 [Compound 12, {trans-3-(4-{[4-{[(2S)-2-(hydroxymethyl)pyrrolidin-1-yl]methyl}-6-(trifluoromethyl)pyridin-2-yl]oxy}piperidin-1-yl)-1-[4-(7H-pyrrolo[2,3-d]pyrimidin-4-yl)-1H-pyrazol-1-yl]cyclobutyl}acetonitrile]
N#CCC1(n2cc(-c3ncnc4[nH]ccc34)cn2)CN(C2CCN(C(=O)Nc3ccc(F)cc3C(F)(F)F)CC2)C1 [Compound 8]
CC(C)(O)c1cc(O[C@H]2CC[C@@H](N3CC(CC#N)(n4cc(-c5ncnc6[nH]ccc56)cn4)C3)CC2)nc(C(F)(F)F)c1 [Compound 20, {1-(cis-4-{[4-(1-hydroxy-1-methylethyl)-6-(trifluoromethyl)pyridin-2-yl]oxy}cyclohexyl)-3-[4-(7H-pyrrolo[2,3-d]pyrimidin-4-yl)-1H-pyrazol-1-yl]azetidin-3-yl}acetonitrile]
N#CCC(CN1CCN(C(=O)c2ccc(C#N)cc2F)CC1)n1cc(-c2ncnc3[nH]ccc23)cn1 (stereo not drawn) [Compound 5, 4-[(4-{3-cyano-2-[4-(7H-pyrrolo[2,3-d]pyrimidin-4-yl)-1H-pyrazol-1-yl]propyl}piperazin-1-yl)carbonyl]-3-fluorobenzonitrile]
N#CCC1(n2cc(-c3ncnc4[nH]ccc34)cn2)CN(C2CCN(C(=O)c3ccnc(C(F)(F)F)n3)CC2)C1 [Compound 9, [3-[4-(7H-pyrrolo[2,3-d]pyrimidin-4-yl)-1H-pyrazol-1-yl]-1-(1-{[2-(trifluoromethyl)pyrimidin-4-yl]carbonyl}piperidin-4-yl)azetidin-3-yl]acetonitrile]
N#CCC(CN1CCN(C(=O)c2ccc(C#N)cc2F)CC1)n1ccc(-c2ncnc3[nH]ccc23)c1 (stereo not drawn) [Compound 6, 4-[(4-{3-cyano-2-[3-(7H-pyrrolo[2,3-d]pyrimidin-4-yl)-1H-pyrrol-1-yl]propyl}piperazin-1-yl)carbonyl]-3-fluorobenzonitrile]
N#CCC1(n2cc(-c3ncnc4[nH]ccc34)cn2)CN([C@H]2CC[C@@H](Oc3cc(CCO)nc(C(F)(F)F)n3)CC2)C1 [Compound 18, {1-(cis-4-{[6-(2-hydroxyethyl)-2-(trifluoromethyl)pyrimidin-4-yl]oxy}cyclohexyl)-3-[4-(7H-pyrrolo[2,3-d]pyrimidin-4-yl)-1H-pyrazol-1-yl]azetidin-3-yl)acetonitrile]
C[C@@H](CO)NCc1cc(OC2CCN([C@H]3C[C@](CC#N)(n4cc(-c5ncnc6[nH]ccc56)cn4)C3)CC2)nc(C(F)(F)F)c1 [Compound 23, {trans-3-(4-{[4-({[(1S)-2-hydroxy-1-methylethyl]amino}methyl)-6-(trifluoromethyl)pyridin-2-yl]oxy}piperidin-1-yl)-1-[4-(7H-pyrrolo[2,3-d]pyrimidin-4-yl)-1H-pyrazol-1-yl]cyclobutyl}acetonitrile]
N#CCC1(n2cc(-c3ncnc4[nH]ccc34)cn2)CN([C@H]2CC[C@@H](Oc3cc(CN4CC[C@@H](O)C4)cc(C(F)(F)F)n3)CC2)C1 [Compound 21, {1-(cis-4-{[4-{[(3R)-3-hydroxypyrrolidin-1-yl]methyl}-6-(trifluoromethyl)pyridin-2-yl]oxy}cyclohexyl)-3-[4-(7H-pyrrolo[2,3-d]pyrimidin-4-yl)-1H-pyrazol-1-yl]azetidin-3-yl}acetonitrile]
N#CCC(C1CCN(c2nc3cccnc3o2)C1)n1cc(-c2ncnc3[nH]ccc23)cn1 (stereo not drawn) [Compound 4, 3-(1-[1,3]oxazolo[5,4-b]pyridin-2-ylpyrrolidin-3-yl)-3-[4-(7H-pyrrolo[2,3-d]pyrimidin-4-yl)-1H-pyrazol-1-yl]propanenitrile]
N#CC[C@]1(n2cc(-c3ncnc4[nH]ccc34)cn2)C[C@H](N2CCN(C(=O)c3ccnc(C(F)(F)F)n3)CC2)C1 [Compound 10, [trans-1-[4-(7H-pyrrolo[2,3-d]pyrimidin-4-yl)-1H-pyrazol-1-yl]-3-(4-{[2-(trifluoromethyl)pyrimidin-4-yl]carbonyl}piperazin-1-yl)cyclobutyl]acetonitrile]
N#CC[C@]1(n2cc(-c3ncnc4[nH]ccc34)cn2)C[C@H](N2CCC(Oc3cc(CN4CC(O)C4)cc(C(F)(F)F)n3)CC2)C1 [Compound 11, {trans-3-(4-{[4-[(3-hydroxyazetidin-1-yl)methyl]-6-(trifluoromethyl)pyridin-2-yl]oxy}piperidin-1-yl)-1-[4-(7H-pyrrolo[2,3-d]pyrimidin-4-yl)-1H-pyrazol-1-yl]cyclobutyl}acetonitrile]
CCNCc1cc(O[C@H]2CC[C@@H](N3CC(CC#N)(n4cc(-c5ncnc6[nH]ccc56)cn4)C3)CC2)nc(C(F)(F)F)c1 [Compound 19, {1-(cis-4-{[4-[(ethylamino)methyl]-6-(trifluoromethyl)pyridin-2-yl]oxy}cyclohexyl)-3-[4-(7H-pyrrolo[2,3-d]pyrimidin-4-yl)-1H-pyrazol-1-yl]azetidin-3-yl}acetonitrile]
N#CC[C@]1(n2cc(-c3ncnc4[nH]ccc34)cn2)C[C@H](N2CCC(Oc3cc(CN4CCC[C@@H]4CO)cc(C(F)(F)F)n3)CC2)C1 [Compound 13, {trans-3-(4-{[4-{[(2R)-2-(hydroxymethyl)pyrrolidin-1-yl]methyl}-6-(trifluoromethyl)pyridin-2-yl]oxy}piperidin-1-yl)-1-[4-(7H-pyrrolo[2,3-d]pyrimidin-4-yl)-1H-pyrazol-1-yl]cyclobutyl}acetonitrile]
N#CCC(C1CCN(c2cccc(Cl)n2)C1)n1cc(-c2ncnc3[nH]ccc23)cn1 (single isomer, unassigned) [Compound 3, 3-[1-(6-chloropyridin-2-yl)pyrrolidin-3-yl]-3-[4-(7H-pyrrolo[2,3-d]pyrimidin-4-yl)-1H-pyrazol-1-yl]propanenitrile]
